Test results published in patent publication US20020111274A1, “1-alkyl-3-[1-(substituted phenyl) benzotriazol-6-yl] uracils” (BASF Aktiengesellschaft, priority 2000, published 2002).

Experiments:
Parameters in all cases: scale not given here
[1] = tested on: ABUTH Velvetleaf; assay: Postemergence herbicidal evaluation, ABUTH; type: in vivo, Abutilon theophrasti, Medic.; details: postemergence spray, rated about two-three weeks after treatment
Summary of the method: (§1)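 Two-week-old seedlings sprayed postemergence with compound in 80/20 acetone/water plus 1.0% methylated seed oil, at about 0.006–0.400 kg/ha, through a nozzle at 40 psi. Plants kept under greenhouse conditions and visually rated about two–three weeks after treatment; ratings from repeat tests averaged.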

[2] = tested on: AMBEL Ragweed, Common; assay: Postemergence herbicidal evaluation, AMBEL; type: in vivo, Ambrosia artemisifolia, L.; details: postemergence spray, rated about two-three weeks after treatment
Summary of the method: as §1

[3] = tested on: CASOB Sicklepod; assay: Postemergence herbicidal evaluation, CASOB; type: in vivo, Cassia obtusifolia, L.; details: postemergence spray, rated about two-three weeks after treatment
Summary of the method: as §1

[4] = tested on: CHEAL Lambsquarters, Common; assay: Postemergence herbicidal evaluation, CHEAL; type: in vivo, Chenopodium album, L.; details: postemergence spray, rated about two-three weeks after treatment
Summary of the method: as §1

[5] = tested on: ECHOG Barnyardgrass; assay: Postemergence herbicidal evaluation, ECHOG; type: in vivo, Echinochloa crus-galli, (L.) Beau; details: postemergence spray, rated about two-three weeks after treatment
Summary of the method: as §1

[6] = tested on: GALAP Galium; assay: Postemergence herbicidal evaluation, GALAP; type: in vivo, Galium aparine; details: postemergence spray, rated about two-three weeks after treatment
Summary of the method: as §1

[7] = tested on: IPOHE Morningglory, Ivyleaf; assay: Postemergence herbicidal evaluation, IPOHE; type: in vivo, Ipomoea hederacea, (L.) Jacq.; details: postemergence spray, rated about two-three weeks after treatment
Summary of the method: as §1

[8] = tested on: SETVI Foxtail, Green; assay: Postemergence herbicidal evaluation, SETVI; type: in vivo, Setaria viridis, (L.) Beau; details: postemergence spray, rated about two-three weeks after treatment
Summary of the method: as §1

[9] = tested on: GLXMAW Soybean, Williams; assay: Postemergence herbicidal evaluation, GLXMAW; type: in vivo, Glycine max, (L.) Merr. cv Williams; details: postemergence spray, rated about two-three weeks after treatment
Summary of the method: as §1

[10] = tested on: TRZAWR Wheat, Winter, cv Riband; assay: Postemergence herbicidal evaluation, TRZAWR; type: in vivo, Triticum aestivum; details: postemergence spray, rated about two-three weeks after treatment
Summary of the method: as §1

[11] = tested on: ORYSAT Rice, Tebonnet; assay: Postemergence herbicidal evaluation, ORYSAT; type: in vivo, Oryza sativa, (L.); details: postemergence spray, rated about two-three weeks after treatment
Summary of the method: as §1

[12] = tested on: ZEAMX Corn, Field; assay: Postemergence herbicidal evaluation, ZEAMX; type: in vivo, Zea mays, L. (Sammel-Bezeichnung); details: postemergence spray, rated about two-three weeks after treatment
Summary of the method: as §1

[13] = tested on: ABUTH Velvetleaf; assay: Preemergence herbicidal evaluation, ABUTH; type: in vivo, Abutilon theophrasti, Medic.; details: preemergence
Summary of the method: (§2)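 Preemergence soil spray: aqueous acetone, ~0.013–0.800 kg/ha, applied right after sowing (seed/potting-soil mix over ~1 in soil). Greenhouse, routine watering. Scored 4–5 wk post-treatment on a rating scale.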

[14] = tested on: AMBEL Ragweed, Common; assay: Preemergence herbicidal evaluation, AMBEL; type: in vivo, Ambrosia artemisifolia, L.; details: preemergence
Summary of the method: as §2

[15] = tested on: CASOB Sicklepod; assay: Preemergence herbicidal evaluation, CASOB; type: in vivo, Cassia obtusifolia, L.; details: preemergence
Summary of the method: as §2

[16] = tested on: CHEAL Lambsquarters, Common; assay: Preemergence herbicidal evaluation, CHEAL; type: in vivo, Chenopodium album, L.; details: preemergence
Summary of the method: as §2

[17] = tested on: ECHOG Barnyardgrass; assay: Preemergence herbicidal evaluation, ECHOG; type: in vivo, Echinochloa crus-galli, (L.) Beau; details: preemergence
Summary of the method: as §2

[18] = tested on: GALAP Galium; assay: Preemergence herbicidal evaluation, GALAP; type: in vivo, Galium aparine; details: preemergence
Summary of the method: as §2

[19] = tested on: IPOHE Morningglory, Ivyleaf; assay: Preemergence herbicidal evaluation, IPOHE; type: in vivo, Ipomoea hederacea, (L.) Jacq.; details: preemergence
Summary of the method: as §2

[20] = tested on: SETVI Foxtail, Green; assay: Preemergence herbicidal evaluation, SETVI; type: in vivo, Setaria viridis, (L.) Beau; details: preemergence
Summary of the method: as §2

[21] = tested on: GLXMAW Soybean, Williams; assay: Preemergence herbicidal evaluation, GLXMAW; type: in vivo, Glycine max, (L.) Merr. cv Williams; details: preemergence
Summary of the method: as §2

[22] = tested on: TRZAWR Wheat, Winter, cv Riband; assay: Preemergence herbicidal evaluation, TRZAWR; type: in vivo, Triticum aestivum; details: preemergence
Summary of the method: as §2

[23] = tested on: ORYSAT Rice, Tebonnet; assay: Preemergence herbicidal evaluation, ORYSAT; type: in vivo, Oryza sativa, (L.); details: preemergence
Summary of the method: as §2

[24] = tested on: ZEAMX Corn, Field; assay: Preemergence herbicidal evaluation, ZEAMX; type: in vivo, Zea mays, L. (Sammel-Bezeichnung); details: preemergence
Summary of the method: as §2

Question: Which results are given for `Cc1ccc(O)cc1-n1nnc2cc(F)c(-n3c(=O)cc(C(F)(F)F)n(C)c3=O)cc21` [Example 32]?
Answer: Postemergence herbicidal rating ABUTH ([1]; 0.008 kg/ha): 0.0; Postemergence herbicidal rating ABUTH ([1]; 0.016 kg/ha): 0.0; Postemergence herbicidal rating ABUTH ([1]; 0.032 kg/ha): 0.0; Postemergence herbicidal rating ABUTH ([1]; 0.062 kg/ha): 4.0; Postemergence herbicidal rating AMBEL ([2]; 0.008 kg/ha): 0.0; Postemergence herbicidal rating AMBEL ([2]; 0.016 kg/ha): 0.0; Postemergence herbicidal rating AMBEL ([2]; 0.032 kg/ha): 0.0; Postemergence herbicidal rating AMBEL ([2]; 0.062 kg/ha): 0.0; Postemergence herbicidal rating CASOB ([3]; 0.008 kg/ha): 0.0; Postemergence herbicidal rating CASOB ([3]; 0.016 kg/ha): 0.0; Postemergence herbicidal rating CASOB ([3]; 0.032 kg/ha): 0.0; Postemergence herbicidal rating CASOB ([3]; 0.062 kg/ha): 0.0; Postemergence herbicidal rating CHEAL ([4]; 0.008 kg/ha): 0.0; Postemergence herbicidal rating CHEAL ([4]; 0.016 kg/ha): 0.0; Postemergence herbicidal rating CHEAL ([4]; 0.032 kg/ha): 0.0; Postemergence herbicidal rating CHEAL ([4]; 0.062 kg/ha): 0.0; Postemergence herbicidal rating ECHCG ([5]; 0.008 kg/ha): 0.0; Postemergence herbicidal rating ECHCG ([5]; 0.016 kg/ha): 0.0; Postemergence herbicidal rating ECHCG ([5]; 0.032 kg/ha): 0.0; Postemergence herbicidal rating ECHCG ([5]; 0.062 kg/ha): 0.0; Postemergence herbicidal rating GALAP ([6]; 0.008 kg/ha): 0.0; Postemergence herbicidal rating GALAP ([6]; 0.016 kg/ha): 0.0; Postemergence herbicidal rating GALAP ([6]; 0.032 kg/ha): 0.0; Postemergence herbicidal rating GALAP ([6]; 0.062 kg/ha): 0.0; Postemergence herbicidal rating IPOHE ([7]; 0.008 kg/ha): 0.0; Postemergence herbicidal rating IPOHE ([7]; 0.016 kg/ha): 0.0; Postemergence herbicidal rating IPOHE ([7]; 0.032 kg/ha): 0.0; Postemergence herbicidal rating IPOHE ([7]; 0.062 kg/ha): 0.0; Postemergence herbicidal rating SETVI ([8]; 0.008 kg/ha): 0.0; Postemergence herbicidal rating SETVI ([8]; 0.016 kg/ha): 0.0; Postemergence herbicidal rating SETVI ([8]; 0.032 kg/ha): 0.0; Postemergence herbicidal rating SETVI ([8]; 0.062 kg/ha): 0.0; Postemergence herbicidal rating GLXMAW ([9]; 0.008 kg/ha): 2.0; Postemergence herbicidal rating GLXMAW ([9]; 0.016 kg/ha): 2.5; Postemergence herbicidal rating GLXMAW ([9]; 0.032 kg/ha): 3.0; Postemergence herbicidal rating GLXMAW ([9]; 0.062 kg/ha): 3.0; Postemergence herbicidal rating TRZAWR ([10]; 0.008 kg/ha): 1.0; Postemergence herbicidal rating TRZAWR ([10]; 0.016 kg/ha): 2.5; Postemergence herbicidal rating TRZAWR ([10]; 0.032 kg/ha): 2.5; Postemergence herbicidal rating TRZAWR ([10]; 0.062 kg/ha): 3.0; Postemergence herbicidal rating ORYSAT ([11]; 0.008 kg/ha): 1.0; Postemergence herbicidal rating ORYSAT ([11]; 0.016 kg/ha): 1.5; Postemergence herbicidal rating ORYSAT ([11]; 0.032 kg/ha): 1.5; Postemergence herbicidal rating ORYSAT ([11]; 0.062 kg/ha): 2.0; Postemergence herbicidal rating ZEAMX ([12]; 0.008 kg/ha): 2.0; Postemergence herbicidal rating ZEAMX ([12]; 0.016 kg/ha): 2.5; Postemergence herbicidal rating ZEAMX ([12]; 0.032 kg/ha): 2.5; Postemergence herbicidal rating ZEAMX ([12]; 0.062 kg/ha): 2.5; ABUTH herbicidal rating ([13]; rate 0.016 kg/ha): 0.0; ABUTH herbicidal rating ([13]; rate 0.032 kg/ha): 0.0; ABUTH herbicidal rating ([13]; rate 0.062 kg/ha): 0.0; ABUTH herbicidal rating ([13]; rate 0.125 kg/ha): 4.0; AMBEL herbicidal rating ([14]; rate 0.016 kg/ha): 0.0; AMBEL herbicidal rating ([14]; rate 0.032 kg/ha): 0.0; AMBEL herbicidal rating ([14]; rate 0.062 kg/ha): 0.0; AMBEL herbicidal rating ([14]; rate 0.125 kg/ha): 0.0; CASOB herbicidal rating ([15]; rate 0.016 kg/ha): 0.0; CASOB herbicidal rating ([15]; rate 0.032 kg/ha): 0.0; CASOB herbicidal rating ([15]; rate 0.062 kg/ha): 0.0; CASOB herbicidal rating ([15]; rate 0.125 kg/ha): 0.0; CHEAL herbicidal rating ([16]; rate 0.016 kg/ha): 0.0; CHEAL herbicidal rating ([16]; rate 0.032 kg/ha): 0.0; CHEAL herbicidal rating ([16]; rate 0.062 kg/ha): 0.0; CHEAL herbicidal rating ([16]; rate 0.125 kg/ha): 6.0; ECHCG herbicidal rating ([17]; rate 0.016 kg/ha): 0.0; ECHCG herbicidal rating ([17]; rate 0.032 kg/ha): 0.0; ECHCG herbicidal rating ([17]; rate 0.062 kg/ha): 0.0; ECHCG herbicidal rating ([17]; rate 0.125 kg/ha): 0.0; GALAP herbicidal rating ([18]; rate 0.016 kg/ha): 0.0; GALAP herbicidal rating ([18]; rate 0.032 kg/ha): 0.0; GALAP herbicidal rating ([18]; rate 0.062 kg/ha): 0.0; IPOHE herbicidal rating ([19]; rate 0.016 kg/ha): 0.0; IPOHE herbicidal rating ([19]; rate 0.032 kg/ha): 0.0; IPOHE herbicidal rating ([19]; rate 0.062 kg/ha): 0.0; IPOHE herbicidal rating ([19]; rate 0.125 kg/ha): 0.0; SETVI herbicidal rating ([20]; rate 0.016 kg/ha): 0.0; SETVI herbicidal rating ([20]; rate 0.032 kg/ha): 0.0; SETVI herbicidal rating ([20]; rate 0.062 kg/ha): 0.0; SETVI herbicidal rating ([20]; rate 0.125 kg/ha): 0.0; GLXMAW herbicidal rating ([21]; rate 0.016 kg/ha): 0.0; GLXMAW herbicidal rating ([21]; rate 0.032 kg/ha): 0.0; GLXMAW herbicidal rating ([21]; rate 0.062 kg/ha): 0.0; GLXMAW herbicidal rating ([21]; rate 0.125 kg/ha): 1.0; TRZAWR herbicidal rating ([22]; rate 0.016 kg/ha): 0.0; TRZAWR herbicidal rating ([22]; rate 0.032 kg/ha): 0.0; TRZAWR herbicidal rating ([22]; rate 0.062 kg/ha): 0.0; TRZAWR herbicidal rating ([22]; rate 0.125 kg/ha): 0.0; ORYSAT herbicidal rating ([23]; rate 0.016 kg/ha): 0.0; ORYSAT herbicidal rating ([23]; rate 0.032 kg/ha): 0.0; ORYSAT herbicidal rating ([23]; rate 0.062 kg/ha): 0.0; ORYSAT herbicidal rating ([23]; rate 0.125 kg/ha): 0.0; ZEAMX herbicidal rating ([24]; rate 0.016 kg/ha): 0.0; ZEAMX herbicidal rating ([24]; rate 0.032 kg/ha): 0.0; ZEAMX herbicidal rating ([24]; rate 0.062 kg/ha): 0.0; ZEAMX herbicidal rating ([24]; rate 0.125 kg/ha): 1.0
